Data: US12174172B2, “Method for evaluating the efficacy of a composition in reducing the effects of cancer therapeutics on skin” (Johnson & Johnson Consumer Inc., priority 2019, dated 2024)
Like-named read-outs stand apart in the source and are kept apart here. Marks after values point to notes of the source that are not given here.

Assays:
[1] = tested on: Human epidermal keratinocytes cells (HPEKs), 3D micro-epidermis; assay: 3D micro-epidermis model (EpiScreen): epidermis size, toxicity, dose response, classification; format: cell-based; details: for Dose in response: variation of protein expression at 3, 10, 30 nM (EGFRi) or 3, 10, 30, 100 nM (VEGFRi); for Dose in response / Dose/response: markers in brackets; for Dose/response: supplementary table, per run (1st or 2nd Run); for effect on desmoglein-1, involucrin and filaggrin expression (dose dependence): 3, 10, 30 nM;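 for all read-outs here: keratinocytes on micropatterned discs in high-calcium medium, drug exposure for three days, then fixation and confocal high-content imaging of actin, nuclei and a marker, vehicle DMSO-matched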
desmoglein-1 (DSG1) [2] = assay: 3D micro-epidermis model (EpiScreen): desmoglein-1 immunostaining; format: cell-based, human; details: for activation at 0.01 µM / activation at 0.1 µM: Homo sapiens, 72 h; for activation at 0.01 µM: 10 nM, read-out: DSG 10 nM; for activation at 0.01 µM / DSG 3 nM / DSG 30 nM / activation at 0.1 µM: supplementary data; for DSG-1 expression: Table 1 summary; for activation at 0.1 µM: 100 nM, Tox = toxic, read-out: DSG 100 nM
Procedure: (§1) To assess the effects of such therapy molecules on the epidermis, keratinocytes were grown in the presence of kinase inhibitors during 3 days with high calcium concentration to induce keratinocyte differentiation and generate a 3D-stratified differentiated epidermis. Drug impact on the epidermis development was assessed via different keratinocyte markers including: • Ki-67, an universally expressed protein among proliferating cells and absent in the quiescent cells; • Filaggrin, a filament-associated protein that binds to keratin fibers and is a marker of terminal differentiation; • Desmoglein-1, a component of desmosomes and differentiation marker expressed in all epidermal layer above the basal layer; and • Involucrin, an early differentiation marker expressed in the spinous and granular layers and a protein precursor of the epidermal cornified envelope.
(§2) Human epidermal keratinocytes cells (HPEKs) from a juvenile donor (CellnTec, Switzerland) are cultured in flasks in proliferation medium. Keratinocytes are seeded at passage 6 into EpiScreen™ (Abzena, Cambridge, UK) plates containing collagen 1 coated disc micropatterns (CYTOO, Grenoble, France). Four hours later, unattached cells are washed off and a high calcium medium is added to induce keratinocytes differentiation. The day after, keratinocytes are treated with screening compounds, and Trichostatin A is added at 0.3 μM as an internal positive control. After three days of treatment, micro-epidermises are fixed with a formalin solution 10% for 30 minutes, then permeabilized with 0.1% Triton. Several immunostainings are performed: actin (Acti-Stain 555, PHDH1, Cytoskeleton), nuclei (Hoechst, H3570, Invitrogen), and one biomarker of interest per well either anti-involucrin (HPA055211, Sigma), anti-filaggrin (HPA030189, Sigma) or anti-desmoglein-1 (HPA022128, Sigma). Antibodies are added overnight at 4° C. before staining with secondary antibody, anti-rabbit 488 (711-545-152, Jackson) for 2 hours at room temperature.
(§3) Images of each well are acquired with the Operetta HCS platform (Perkin Elmer, Waltham, MA, USA) using a ×10 objective in confocal mode in eight z-planes from 2 μm to 44 μm in steps of 6 μm in each of the 3 channels: actin, nuclei, and one biomarker of interest. The first step of the image analysis consists in detecting micro-epidermis structures on the first z-plane by segmenting the actin staining. Micro-epidermis structures are validated based on several area and roundness min and max criteria. Then, the area of each biomarker staining is measured inside the valid micro-epidermis masks through each z-plane. For all homogeneous biomarker staining, their intensity through the different planes is measured.
(§4) The actin network of each micro-epidermis is analyzed in each z-plane in order to determine the average 3D structure edges. The biomarker intensity is measured in each z-plane for each structure, and then averaged with the other results generated in the same well. Based on the data generated in the two previous steps, an average 3D reconstruction image is generated. It consists of a meshwork that delimits the structure edges, and a color scaled volume that corresponds to the biomarkers distribution and expression.
The effect of 8 oncology molecules, selected from first generation EGFRi and pan-kinase inhibitors which mostly target VEGFR and second and third generation therapies targeting main mutations relating to first generation treatment resistance, were assessed in vitro using a 3D micro-epidermis model. The drug incubation concentrations (3, 10, 30, 100 nM) were selected to reflect the clinically relevant (unbound) drug exposures (Table 2). The drug impact was assessed by analysis of tissue size and keratinocyte proliferation using Ki-67 staining and keratinocyte differentiation using filaggrin, desmoglein-1 and involucrin staining. […]

involucrin (IVL) = assay: 3D micro-epidermis model (EpiScreen): involucrin immunostaining; format: cell-based, human; details: for IVL 10 nM / IVL 10 μM / IVL 3 nM / IVL 30 nM / activation at 0.1 µM: supplementary data; for IVL 10 nM / IVL 10 μM / activation at 0.1 µM: two runs; for IVL 10 μM / activation at 0.1 µM: Tox = toxic; for IVL expression: Table 1 summary; for activation at 0.1 µM: Homo sapiens, 72 h, 100 nM
Procedure: as §1, §2, §3, §4
The effect of 8 oncology molecules, selected from first generation EGFRi and pan-kinase inhibitors which mostly target VEGFR and second and third generation therapies targeting main mutations relating to first generation treatment resistance, were assessed in vitro using a 3D micro-epidermis model. […] The drug impact was assessed by analysis of tissue size and keratinocyte proliferation using Ki-67 staining and keratinocyte differentiation using filaggrin, desmoglein-1 and involucrin staining.
Size of the epidermis and the expression of the protein junction desmoglein-1 (DSG1), involucrin (IVL) and filaggrin (FLG) was assessed by immunostaining and compared to untreated control. […]

filaggrin (FLG) = assay: 3D micro-epidermis model (EpiScreen): filaggrin immunostaining; format: cell-based, human; details: for FLG 10 μM / activation at 0.01 µM / FLG 3 nM / FLG 30 nM / activation at 0.1 µM: supplementary data; for FLG 10 μM / activation at 0.01 µM / activation at 0.1 µM: two runs; for FLG 10 μM / activation at 0.1 µM: Tox = toxic; for activation at 0.01 µM / activation at 0.1 µM: Homo sapiens, 72 h; for FLG expression: Table 1 summary;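 for all read-outs here: human primary epidermal keratinocytes differentiated in high calcium into 3D micro-epidermises, compound-treated for three days, imaged by confocal high-content microscopy, filaggrin staining intensity quantified within actin-segmented structures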
desmoglein-1 (DSG1) [3] = assay: 3D micro-epidermis model (EpiScreen): desmoglein-1 immunostaining; format: cell-based, human; details: 10 μM; supplementary data; Tox = toxic
[4] = cited from earlier work; for Cmax: maximal plasma concentration after a single daily-recommended dose, human; for Unbound fraction: unbound to plasma protein
[5] = most frequent cutaneous adverse reaction reported by the FDA Adverse Event Reporting System; cited from earlier work
[6] = tested on: SkinEthic Reconstructed Human Epidermis (RHE); assay: Skin barrier function: trans-epidermal water loss (TEWL) on reconstructed human epidermis; format: cell-based; details: SDS 0.5% topical
Procedure: The effect of drugs on the skin barrier function was assessed by measuring trans-epidermal water loss (TEWL) rates on SkinEthicTM Reconstructed Human Epidermis (RHE) model (Episkin, Lyon, France) using Tewitro® TW 24 (Courage+Khazaka electronic GmbH, Köln, Germany). This instrument allows 24 simultaneous measurements on RHE. TEWL was analyzed at 33° C. in an incubator. […] Petrolatum, a highly hydrophobic hydrocarbon, water-repelling and insoluble in water was used to block water evaporation at the RHE surface (negative control). […] DMSO was used in the same proportion in the vehicle. SkinEthicTM RHE (Episkin, Lyon, France), is an in vitro reconstructed human epidermis from normal human keratinocytes cultured on an inert polycarbonate filter at the air-liquid interface, in a chemically defined medium. This model exists at different stages of maturity. This model is histologically similar to in vivo human epidermis. See […].com/SkinEthic%20RHE. The Tewitro® TW 24 is a device that measures water evaporation from cultured tissue sets (wells in a plate with medium) in up to 24 wells simultaneously. See https://www.courage-[…].

[7] = Table 1 summary of drug effect on epidermis
[8] = Table 1 summary, pro-differentiation / pro-proliferation
[9] = Table 3, 30 nM (EGFRi) or 100 nM (VEGFRi), 3 days, vs untreated control, superscript = significance footnote
[10] = Table 3, pro-proliferation or pro-differentiation
[11] = concentration (afatinib 3, 10, 30 nM; pan-kinase inhibitors 100 nM)

Molecule | Toxicity at 1 μM ([1]; 1 μM, micro-epidermis) | activation at 0.01 µM (desmoglein-1 (DSG1) [2]) [%] | IVL 10 nM (involucrin (IVL)) [%] | IVL 10 μM (involucrin (IVL)) | FLG 10 μM (filaggrin (FLG)) | activation at 0.01 µM (filaggrin (FLG); 10 nM, read-out: FLG 10 nM) [%] | DSG 10 μM (desmoglein-1 (DSG1) [3]) | Cmax [4] [nM] | Unbound fraction [4] | Major Skin Effect [5] | Epidermis size [1, 7] | Classification [1, 8] | Epidermis size [1, 9] | Classification [1, 10] | Dose in response ([1]; Table 3) | Dose/response [1] | DSG-1 expression (desmoglein-1 (DSG1) [2]) | IVL expression (involucrin (IVL)) | activation at 0.01 µM (filaggrin (FLG); read-out: FLG 10 nM, 10 nM) [%] | FLG expression (filaggrin (FLG)) | further results
CCN(CC)CCNC(=O)c1c(C)[nH]c(/C=C2\C(=O)Nc3ccc(F)cc32)c1C [Sunitinib] | No | 15 | 0 | 24% | 101% | -5 | 27% | 75 | 5%* | Palmoplantar | – | – | – | – | – | – | – | – | – | – | micro-epidermis size / epidermal volume ([1]; concentration (afatinib 3-30 nM; pan-kinase inhibitors up to 100 nM)): no effect
CNC(=O)c1cc(Oc2ccc(NC(=O)Nc3ccc(Cl)c(C(F)(F)F)c3)cc2)ccn1 [Sorafenib] | Yes | -8 | 6 | Tox | Tox | – | Tox | 8180 | 0.29% | Rash | Decreased | Pro-proliferation | Decreased^2 | Pro- | No | No | Unchanged | Unchanged | -22 | Decreased | desmoglein-1 expression (desmoglein-1 (DSG1) [2]; [11]): do not impact; involucrin expression (involucrin (IVL); [11]): do not impact
sodium dodecyl sulfoxide [SDS] | – | – | – | – | – | – | – | – | – | – | – | – | – | – | – | – | – | – | – | – | increase of the TEWL rate ([6]; day 1): 98%; increase of the TEWL rate ([6]; day 2, afatinib 100 nM in the media): 77%; increase of the TEWL rate ([6]; day 5, afatinib 100 nM in the media): 58%; increase of the TEWL rate ([6]; day 7, afatinib 100 nM in the media): non-significant increase
C#Cc1cccc(Nc2ncnc3cc(OCCOC)c(OCCOC)cc23)c1 [Erlotinib] | – | -2 | 16 | – | – | – | – | 1600 | 5% | Papulo-pustular | Decreased | Pro-differentiation | Decreased^1 | Pro- | No | No | Increased | Increased | 0 | Increased | Toxicity at 1 μM [1]: Yes; effect on desmoglein-1, involucrin and filaggrin expression (dose dependence) [1]: did not affect; DSG 3 nM (desmoglein-1 (DSG1) [2]): −7%; DSG 30 nM (desmoglein-1 (DSG1) [2]): 1%; activation at 0.1 µM (desmoglein-1 (DSG1) [2]): 36%; IVL 3 nM (involucrin (IVL)): 13%; IVL 30 nM (involucrin (IVL)): 22%; activation at 0.1 µM (involucrin (IVL)): 35%; FLG 3 nM (filaggrin (FLG)): 6%; FLG 30 nM (filaggrin (FLG)): 10%; activation at 0.1 µM (filaggrin (FLG); read-out: FLG 100 nM, 100 nM): 34%
CS(=O)(=O)CCNCc1ccc(-c2ccc3ncnc(Nc4ccc(OCc5cccc(F)c5)c(Cl)c4)c3c2)o1 [Lapatinib] | – | 9.6 | 14 | – | – | 9 | – | 516 | 1%* | Rash | Decreased | Pro-differentiation | Unchanged^4 | Pro- | Yes | Yes (DSG, IVL, | Increased | Increased | – | Increased | Toxicity at 1 μM [1]: Yes; effect on desmoglein-1, involucrin and filaggrin expression (dose dependence) [1]: dose-dependent manner; DSG 3 nM (desmoglein-1 (DSG1) [2]): −6.20%; DSG 30 nM (desmoglein-1 (DSG1) [2]): 29%; activation at 0.1 µM (desmoglein-1 (DSG1) [2]): 47%; IVL 3 nM (involucrin (IVL)): 17%; IVL 30 nM (involucrin (IVL)): 30%; activation at 0.1 µM (involucrin (IVL)): 48%; FLG 3 nM (filaggrin (FLG)): 7%; FLG 30 nM (filaggrin (FLG)): 20%; activation at 0.1 µM (filaggrin (FLG); 100 nM, read-out: FLG 100 nM): 18%; Unbound concentration ([4]; unbound plasma concentration, identified or calculated from Cmax and unbound fraction): 5.16* nM
